Assays:
[1] = tested on: HCC 2998; assay: Growth inhibition of human HCC2998 cells incubated for 48 hrs by sulforhodamine B assay; type: functional, cell-based; details: HCC 2998, 48 h
[2] = tested on: U-251; assay: Growth inhibition of human U251 cells assessed as cell growth at 0.1 uM incubated for 48 hrs by sulforhodamine B assay relative to control; type: functional; details: U-251, 48 h, read-out: Activity
[3] = tested on: OVCAR-5; assay: Growth inhibition of human OVCAR5 cells incubated for 48 hrs by sulforhodamine B assay; type: functional, cell-based; details: OVCAR-5, 48 h
[4] = tested on: SK-MEL-2; assay: Growth inhibition of human SK-MEL-2 cells assessed as cell growth at 100 uM incubated for 48 hrs by sulforhodamine B assay relative to control; type: functional; details: SK-MEL-2, 48 h, read-out: Activity
[5] = tested on: NCI-H23; assay: Growth inhibition of human NCI-H23 cells incubated for 48 hrs by sulforhodamine B assay; type: functional, cell-based; details: NCI-H23, 48 h
[6] = tested on: A549; assay: Growth inhibition of human A549/ATCC cells assessed as cell growth at 1 uM incubated for 48 hrs by sulforhodamine B assay relative to control; type: functional; details: A549, 48 h, read-out: Activity
[7] = tested on: NCI-H322M; assay: Growth inhibition of human NCI-H322M cells assessed as cell growth at 1 uM incubated for 48 hrs by sulforhodamine B assay relative to control; type: functional; details: read-out: Activity
[8] = tested on: PC-3; assay: Growth inhibition of human PC3 cells assessed as cell growth at 0.1 uM incubated for 48 hrs by sulforhodamine B assay relative to control; type: functional; details: PC-3, 48 h, read-out: Activity
[9] = tested on: SK-MEL-5; assay: Growth inhibition of human SK-MEL-5 cells assessed as cell growth at 0.1 uM incubated for 48 hrs by sulforhodamine B assay relative to control; type: functional; details: SK-MEL-5, 48 h, read-out: Activity
[10] = tested on: SK-MEL-28; assay: Growth inhibition of human SK-MEL-28 cells assessed as cell growth at 100 uM incubated for 48 hrs by sulforhodamine B assay relative to control; type: functional; details: SK-MEL-28, 48 h, read-out: Activity
[11] = tested on: PC-3; assay: Growth inhibition of human PC3 cells assessed as cell growth at 0.01 uM incubated for 48 hrs by sulforhodamine B assay relative to control; type: functional; details: PC-3, 48 h, read-out: Activity
[12] = tested on: MDA-MB-435; assay: Growth inhibition of human MDA-MB-435 cells assessed as cell growth at 100 uM incubated for 48 hrs by sulforhodamine B assay relative to control; type: functional; details: MDA-MB-435, 48 h, read-out: Activity
[13] = tested on: SK-MEL-2; assay: Growth inhibition of human SK-MEL-2 cells assessed as cell growth at 0.1 uM incubated for 48 hrs by sulforhodamine B assay relative to control; type: functional; details: SK-MEL-2, 48 h, read-out: Activity
[14] = tested on: MDA-MB-468; assay: Growth inhibition of human MDA-MB-468 cells assessed as cell growth at 0.1 uM incubated for 48 hrs by sulforhodamine B assay relative to control; type: functional; details: MDA-MB-468, 48 h, read-out: Activity
[15] = tested on: BT-549; assay: Growth inhibition of human BT549 cells incubated for 48 hrs by sulforhodamine B assay; type: functional, cell-based; details: BT-549, 48 h
[16] = tested on: NCI-H522; assay: Growth inhibition of human NCI-H522 cells assessed as cell growth at 1 uM incubated for 48 hrs by sulforhodamine B assay relative to control; type: functional; details: NCI-H522, 48 h, read-out: Activity
[17] = tested on: LOX IMVI; assay: Growth inhibition of human LOXIMVI cells assessed as cell growth at 0.01 uM incubated for 48 hrs by sulforhodamine B assay relative to control; type: functional; details: read-out: Activity
[18] = tested on: SN12C; assay: Growth inhibition of human SN12C cells assessed as cell growth at 0.01 uM incubated for 48 hrs by sulforhodamine B assay relative to control; type: functional; details: read-out: Activity
[19] = tested on: UACC-62; assay: Growth inhibition of human UACC62 cells incubated for 48 hrs by sulforhodamine B assay; type: functional, cell-based; details: UACC-62, 48 h
[20] = tested on: IGROV-1; assay: Growth inhibition of human IGROV1 cells assessed as cell growth at 1 uM incubated for 48 hrs by sulforhodamine B assay relative to control; type: functional; details: IGROV-1, 48 h, read-out: Activity
[21] = tested on: HL-60(TB); assay: Growth inhibition of human HL-60(TB) cells assessed as cell growth at 0.01 uM incubated for 48 hrs by sulforhodamine B assay relative to control; type: functional; details: HL-60, 48 h, read-out: Activity
[22] = tested on: SR; assay: Growth inhibition of human SR cells assessed as cell growth at 1 uM incubated for 48 hrs by sulforhodamine B assay relative to control; type: functional; details: read-out: Activity
[23] = tested on: HT-29; assay: Growth inhibition of human HT-29 cells assessed as cell growth at 0.01 uM incubated for 48 hrs by sulforhodamine B assay relative to control; type: functional; details: HT-29, 48 h, read-out: Activity
[24] = tested on: SK-MEL-5; assay: Growth inhibition of human SK-MEL-5 cells assessed as cell growth at 0.01 uM incubated for 48 hrs by sulforhodamine B assay relative to control; type: functional; details: SK-MEL-5, 48 h, read-out: Activity
[25] = tested on: A549; assay: Growth inhibition of human A549/ATCC cells assessed as cell growth at 0.01 uM incubated for 48 hrs by sulforhodamine B assay relative to control; type: functional; details: A549, 48 h, read-out: Activity
[26] = tested on: UACC-257; assay: Growth inhibition of human UACC257 cells assessed as cell growth at 1 uM incubated for 48 hrs by sulforhodamine B assay relative to control; type: functional; details: UACC-257, 48 h, read-out: Activity
[27] = tested on: HOP-62; assay: Growth inhibition of human HOP62 cells assessed as cell growth at 100 uM incubated for 48 hrs by sulforhodamine B assay relative to control; type: functional; details: HOP-62, 48 h, read-out: Activity
[28] = tested on: 786-0; assay: Growth inhibition of human 786-0 cells assessed as cell growth at 100 uM incubated for 48 hrs by sulforhodamine B assay relative to control; type: functional; details: 786-0, 48 h, read-out: Activity
[29] = tested on: PC-3; assay: Growth inhibition of human PC3 cells assessed as cell growth at 1 uM incubated for 48 hrs by sulforhodamine B assay relative to control; type: functional; details: PC-3, 48 h, read-out: Activity
[30] = tested on: MCF7; assay: Growth inhibition of human MCF7 cells assessed as cell growth at 100 uM incubated for 48 hrs by sulforhodamine B assay relative to control; type: functional; details: MCF7, 48 h, read-out: Activity
[31] = tested on: SR; assay: Growth inhibition of human SR cells assessed as cell growth at 0.01 uM incubated for 48 hrs by sulforhodamine B assay relative to control; type: functional; details: read-out: Activity
[32] = read-out: LC50 (the source's name)
[33] = read-out: pLC50 (the source's name) (converted)

COc1cc(Cl)cc(-c2nn(-c3cccc(NC(=O)c4ccc(N5CCOCC5)c(C(F)(F)F)c4)c3)cc2-c2ccncc2)c1
GI50 ([1]; read-out: GI50): 5.06 µM
CC50 [1, 32]: > 100 µM
TGI ([1]; read-out: TGI): 74.7 µM
GI50 ([1]; read-out: pGI50 (converted)): 6.03 µM
CC50 [1, 33]: > 100 µM
TGI ([1]; read-out: pTGI (converted)): 74.1 µM
growth at 0.1 µM [2]: 95%
GI50 ([3]; read-out: GI50): 3.25 µM
CC50 [3, 32]: > 100 µM
TGI ([3]; read-out: TGI): > 100 µM
GI50 ([3]; read-out: pGI50 (converted)): 32.4 µM
CC50 [3, 33]: > 100 µM
TGI ([3]; read-out: pTGI (converted)): > 100 µM
growth at 100 µM [4]: 15%
GI50 ([5]; read-out: GI50): 3.07 µM
LC50 ([5]; read-out: LC50): > 100 µM
TGI ([5]; read-out: TGI): > 100 µM
GI50 ([5]; read-out: pGI50 (converted)): 30.9 µM
LC50 ([5]; read-out: pLC50 (converted)): > 100 µM
TGI ([5]; read-out: pTGI (converted)): > 100 µM
growth at 1 µM [6]: 52%
growth at 1 µM [7]: 55%
growth at 0.1 µM [8]: 95%
growth at 0.1 µM [9]: 99%
growth at 100 µM [10]: 19%
growth at 0.01 µM [11]: 97%
growth at 100 µM [12]: 42%
growth at 0.1 µM [13]: 83%
growth at 0.1 µM [14]: 92%
GI50 ([15]; read-out: GI50): 5.9 µM
CC50 [15, 32]: > 100 µM
TGI ([15]; read-out: TGI): > 100 µM
GI50 ([15]; read-out: pGI50 (converted)): 89.1 µM
CC50 [15, 33]: > 100 µM
TGI ([15]; read-out: pTGI (converted)): > 100 µM
growth at 1 µM [16]: 77%
growth at 0.01 µM [17]: 97%
growth at 0.01 µM [18]: 97%
IC50 [19]: 9.1 µM
GI50 ([19]; read-out: GI50): 9.1 µM
CC50 [19, 32]: > 100 µM
TGI ([19]; read-out: TGI): > 100 µM
GI50 ([19]; read-out: pGI50 (converted)): 9.12 µM
CC50 [19, 33]: > 100 µM
TGI ([19]; read-out: pTGI (converted)): > 100 µM
growth at 1 µM [20]: 104%
growth at 0.01 µM [21]: 94%
growth at 1 µM [22]: 52%
growth at 0.01 µM [23]: 100%
growth at 0.01 µM [24]: 97%
growth at 0.01 µM [25]: 103%
growth at 1 µM [26]: 98%
growth at 100 µM [27]: 45%
growth at 100 µM [28]: -30%
growth at 1 µM [29]: 73%
growth at 100 µM [30]: 23%
growth at 0.01 µM [31]: 96%

Reference: ChEMBL document CHEMBL4308841, “Synthesis, in vitro antiproliferative activity, and kinase inhibitory effects of pyrazole-containing diarylureas and diarylamides” (Eur J Med Chem, 2018)
